Source: patent EP0444659B1, “A pharmaceutical solution comprising derivatives of FK506” (FUJISAWA PHARMACEUTICAL CO., LTD., priority 1990, dated 1991)
Converted amounts (≈) assume the structure as drawn.

How the values were obtained:
Assay type in all cases: physicochemical
[1] = dilution of the solution with physiological saline: clarity, turbidity and crystal separation
Description: Nonaqueous solvent is, at the time of administrating into the human vascular tract, usually diluted with aqueous solvent such as physiological saline, since nonaqueous solvent has hemolysis action.
The experimental solution (1ml) of the following prescription 3 consisting of FK 506, surface active agent and nonaqueous solvent was diluted with physiological saline (100ml) to find that the clear appearance of prescription was kept unchanged.
Then several prescriptions of clear solution were further prepared altering the concentration of FK 506, the kind and the concentration of surface active agent, and were tested how change the clearity of the solution and whether separate out the crystal or not under the several condition of different degree of dilution.

[2] = solubility of FK 506 in nonaqueous solvents; details: for solubility: ambient temperature
[3] = physchem
Text: From the above point of view, the inventors of the present invention studied, at first, the solubility of the compound (I) in water. As a test compound, the inventors selected the following compound as a free form which has an excellent immunosupressive activity and is called FK 506 hereafter. R^1, R^2, R^8, R^23 = hydrogen R^7, R^9 = hydroxy R^14, R^15, R^16, R^17, R^18, R^19, R^22 = methyl R^10 = allyl R^20 = R^20a,H (R^20a = methoxy) X, Y = oxygen R^21 = R^21a,H (R^21a = hydroxy) n = 2 R^3, R^4 = form a second bond between the vicinal carbon atoms to which they are attached R^5, R^6 = form a second bond between the vicinal carbon atoms to which they are attached
The solubility of FK 506 in water is at most 3 µg/ml under ambient temperature. Accordingly, it is decided to add a surface active agent in order to increase the solubility of FK 506 in water to the level where the clinically effective amount of FK 506 is dissolved. […] As a surface active agent, a castor oil-surface active agent i.e., HCO-10, HCO-40, HCO-60 (trademark, prepared by Nikko Chemicals, respectively) are selected for examination.
It is conjectured from the result shown in Table 1 that the concentration of the surface active agent should be controlled at 1.43w/v% [about 150mg of the surface active agent against 1mg of FK506] to dissolve 0.1mg of FK 506 in 1ml of water, calculating based on the result that 0.035mg of FK 506 is dissolved in 1ml of 0.5w/v% HCO-60 aqueous solution at 20 °C. Accordingly, if it is desired to prepare 5mg/ml aqueous solution FK 506, the concentration of the surface active agent is estimated to come up to 87w/v% from the calculation based on the result of HCO-60, 20w/v%, 20°C. Such […] high concentration of surface active agent in aqueous solution should not be realized in practice of clinical field.

[4] = remaining percentage of FK 506 in aqueous solution with large amount of surface active agent (storage stability); details: FK 506 dissolved in water in the presence of large amount of surface active agent; Table 2 is an image

C=CCC1C=C(C)CC(C)CC(OC)C2OC(O)(C(=O)C(=O)N3CCCCC3C(=O)OC(C(C)=CC3CCC(O)C(OC)C3)C(C)C(O)CC1=O)C(C)CC2OC (centres unmarked) [FK 506, 17-allyl-1,14-dihydroxy-12-[2-(4-hydroxy-3-methoxycyclohexyl)-1-methylvinyl]-23, 25-dimethoxy-13,19,21,27-tetramethyl-11, 28-dioxa-4-azatricyclo-[22.3.1.0^4.9] octacos-18-ene-2,3,10,16-tetraone]
Period till solution becomes turbid to crystallize FK506 ([1]; FK 506 25 mg/ml, dilution times with physiological saline 100, HCO-40, ethanol/surface active agent 80/20): ≧1 days
Period till solution becomes turbid to crystallize FK506 ([1]; FK 506 25 mg/ml, dilution times with physiological saline 100, HCO-60, ethanol/surface active agent 35/65): ≧7 days
Period till solution becomes turbid to crystallize FK506 ([1]; FK 506 25 mg/ml, dilution times with physiological saline 100, HCO-60, ethanol/surface active agent 60/40): ≧1 days
Period till solution becomes turbid to crystallize FK506 ([1]; FK 506 25 mg/ml, dilution times with physiological saline 100, HCO-60, ethanol/surface active agent 80/20): ≧7 days
Period till solution becomes turbid to crystallize FK506 ([1]; FK 506 50 mg/ml, dilution times with physiological saline 2, Cremophor®EL, ethanol/surface active agent 35/65): ≧7 days
Period till solution becomes turbid to crystallize FK506 ([1]; FK 506 50 mg/ml, dilution times with physiological saline 2, Cremophor®EL, ethanol/surface active agent 80/20): ≧1 days
Period till solution becomes turbid to crystallize FK506 ([1]; FK 506 50 mg/ml, dilution times with physiological saline 2, HCO-40, ethanol/surface active agent 40/60): ≧7 days
Period till solution becomes turbid to crystallize FK506 ([1]; FK 506 50 mg/ml, dilution times with physiological saline 2, HCO-40, ethanol/surface active agent 80/20): ≧1 days
Period till solution becomes turbid to crystallize FK506 ([1]; FK 506 50 mg/ml, dilution times with physiological saline 2, HCO-60, ethanol/surface active agent 35/65): ≧7 days
Period till solution becomes turbid to crystallize FK506 ([1]; FK 506 50 mg/ml, dilution times with physiological saline 2, HCO-60, ethanol/surface active agent 60/40): ≧7 days
Period till solution becomes turbid to crystallize FK506 ([1]; FK 506 50 mg/ml, dilution times with physiological saline 2, HCO-60, ethanol/surface active agent 80/20): ≧7 days
concentration at which FK 506 is dissolved in the experimented solvent ([2]; PEG 400, ethanol and propylene glycol (summary of Table 3)): more than 40 mg/ml
solubility ([2]; Solvent Ethanol): > 300000 µg/mL
solubility ([2]; Solvent PEG 400): > 40000 µg/mL
solubility ([2]; Solvent Propylene glycol): > 40000 µg/mL
amount of the surface active agent against 1mg of FK506 [3]: about 150 mg
concentration of the surface active agent to prepare 5mg/ml aqueous solution FK 506 [3]: 87 w/v%
concentration of the surface active agent to dissolve 0.1mg of FK 506 in 1ml of water ([3]; calculated from 0.035mg/ml in 0.5w/v% HCO-60 at 20 °C): 1.43 w/v%
solubility ([3]; hco-40 5 w/v% aqueous, solubility of FK506): 400 µg/mL (≈ 497 µM)
solubility ([3]; hco-40 10 w/v% aqueous, solubility of FK506): 780 µg/mL (≈ 970 µM)
solubility ([3]; hco-40 20 w/v% aqueous, solubility of FK506): 1520 µg/mL (≈ 1890 µM)
solubility ([3]; hco-60 0.1 w/v% aqueous, solubility of FK506): 5 µg/mL (≈ 6.22 µM)
solubility ([3]; hco-60 0.3 w/v% aqueous, solubility of FK506): 19 µg/mL (≈ 23.6 µM)
solubility ([3]; hco-60 0.5 w/v% aqueous, solubility of FK506): 35 µg/mL (≈ 43.5 µM)
solubility of FK506 ([3]; hco-60 5 w/v% aqueous): 290 µg/mL
solubility ([3]; hco-60 5 w/v% aqueous, solubility of FK506): 280 µg/mL (≈ 348 µM)
solubility of FK506 ([3]; hco-60 10 w/v% aqueous): 570 µg/mL
solubility ([3]; hco-60 10 w/v% aqueous, solubility of FK506): 610 µg/mL (≈ 759 µM)
solubility of FK506 ([3]; hco-60 20 w/v% aqueous): 1140 µg/mL
solubility ([3]; hco-60 20 w/v% aqueous, solubility of FK506): 1150 µg/mL (≈ 1430 µM)
solubility of FK506 ([3]; hco-60/hco-10 (4:1) 5 w/v%): 270 µg/mL
solubility ([3]; hco-60/hco-10 (4:1) 5 w/v%, solubility of FK506): 260 µg/mL (≈ 323 µM)
solubility of FK506 ([3]; hco-60/hco-10 (4:1) 10 w/v%): 560 µg/mL
solubility ([3]; hco-60/hco-10 (4:1) 10 w/v%, solubility of FK506): 560 µg/mL (≈ 696 µM)
solubility of FK506 ([3]; hco-60/hco-10 (4:1) 20 w/v%): 1140 µg/mL
solubility ([3]; hco-60/hco-10 (4:1) 20 w/v%, solubility of FK506): 1130 µg/mL (≈ 1410 µM)
solubility ([3]; water, solubility of FK 506 in water): ≤ 3 µg/mL
remaining percentage of FK 506 in aqueous solution (storage stability) [4]: stability for long period storage is not expectable
